Reference: ChEMBL document CHEMBL3507680, “University of Dundee, Gates Library screen for HepG2 cell viability”

Test: Human HepG2 cell viability assay in 384 well format
Assay type: toxicity, cell-based
Design: dose 125 nL, time 70.5 hour; cytotoxicity at 70.5 h: concentration not given beside the values
Settings: HepG2 cells, read-out: Inhibition

CNC(=O)[C@@H]1CN(C(=O)COC)C[C@H]1c1ccnc(N2CCCC2)n1
cytotoxicity at 70.5 h: -5.21%

Cc1cc(C(=O)NC2CCc3nc(C)cn3C2)[nH]n1 (centres undefined)
cytotoxicity at 70.5 h: -5.51%

CCn1ncc2c1C(COCC1CC1)CN(c1ccc(C)nn1)C2 (centres undefined)
cytotoxicity at 70.5 h: -10.4%

CCNC(=O)c1sccc1N(C)S(=O)(=O)c1ccc(Cl)cc1
cytotoxicity at 70.5 h: 1.21%

O=C(N1CCOCC1)[C@@]12CCO[C@@H]1CCN(CC1CCC1)C2
cytotoxicity at 70.5 h: -20.9%

CNS(=O)(=O)c1cnccc1N1CCN(C(C)C)CC1
cytotoxicity at 70.5 h: 2.6%

Cc1ccc(C(=O)N2C[C@@H]3OCCN(C(C)C)[C@@H]3C2)cn1
cytotoxicity at 70.5 h: -11.3%

CS(=O)(=O)CCCNC(=O)C1(c2cccc(Cl)c2)CC1
cytotoxicity at 70.5 h: -12.8%

CCCn1nc2c(cc1=O)CN(Cc1nnc(C3CC3)o1)CC2
cytotoxicity at 70.5 h: 10.1%

O=C(CCN1CCCC1)Nc1c2c(cc3c1CCC3)CCC2
cytotoxicity at 70.5 h: -0.353%

CN(C)c1cc(C2CCCN2C(=O)c2ccc(=O)n(C)c2)ccn1 (centres undefined)
cytotoxicity at 70.5 h: -7.99%

COc1ccccc1C(=O)N1CCN(C(=O)CCCc2cn[nH]c2)CC1
cytotoxicity at 70.5 h: -6.9%

O=C(O)c1ccc(CNC(=O)C2CCN(C(=O)C3CCC3)CC2)s1
cytotoxicity at 70.5 h: -12.2%

Cc1cccc(OCC2CCCN(C(=O)CCn3ccccc3=O)C2)c1 (centres undefined)
cytotoxicity at 70.5 h: -11.2%

CN(CC(=O)N1CCc2[nH]c3ccccc3c2C1)CC1OCCO1
cytotoxicity at 70.5 h: 24%

Cc1ncc(CNC(=O)N(CCCO)C2CCc3ccccc32)s1 (centres undefined)
cytotoxicity at 70.5 h: -5.3%

Cc1ccc(-c2cc(CN3CCc4cncnc4C3)on2)cc1
cytotoxicity at 70.5 h: -10.9%

CN(CCCNC(=O)CN1CCS(=O)(=O)CC1)c1ccccc1
cytotoxicity at 70.5 h: -6.59%

NC(=O)C1CCN(C(=O)NCc2ccc3c(c2)OCCO3)CC1
cytotoxicity at 70.5 h: -9.87%

O=C(NCCNS(=O)(=O)c1cc(F)cc(F)c1)c1ccoc1
cytotoxicity at 70.5 h: -8.89%

CC(=O)N1CCCC(c2ccc(N3CCN(C)CC3)cn2)C1 (centres undefined)
cytotoxicity at 70.5 h: -3.54%

O=C(c1ccc(N2CCCCCC2)nn1)N1CCc2ccccc21
cytotoxicity at 70.5 h: -3.2%

Cc1ccc(Oc2ncccc2CNC2CCSCC2)cn1
cytotoxicity at 70.5 h: -8.64%

CCc1ncc(CN2CCC3(CCCN(CC4CCC4)C3)C2)cn1 (centres undefined)
cytotoxicity at 70.5 h: -6.02%

Cc1cc(C)n(-c2cccc(C(=O)Nc3n[nH]c(C4CCCO4)n3)c2)n1 (centres undefined)
cytotoxicity at 70.5 h: -8.19%

CC(=O)N1CCCC1c1cccc(NCc2ccccc2F)n1 (centres undefined)
cytotoxicity at 70.5 h: -1.09%

Cc1ncsc1CCN1CCN(C(=O)c2ccc(=O)[nH]c2)CC1
cytotoxicity at 70.5 h: -1.09%

O=C(CCn1cccc1)NCc1ccc(CN2CCCCCC2)o1
cytotoxicity at 70.5 h: 0.95%

Cc1cc(C)cc(OCCN(C)Cc2ccc(S(=O)(=O)N(C)C)o2)c1
cytotoxicity at 70.5 h: 19.6%

Cc1ccc(-c2cc(CNc3ncnc4c3CCNCC4)no2)cc1
cytotoxicity at 70.5 h: 1.89%

CC(C)(C)NC(=O)C[C@@H]1CCNC[C@@H]1Cc1cc(C(C)(C)C)on1
cytotoxicity at 70.5 h: -1.48%

COCC1COCCC12CCN(C(=O)Cc1cccc(OC)c1)CC2 (centres undefined)
cytotoxicity at 70.5 h: -11.4%

CC(=O)CSc1nc2c(cnn2CCO)c(=O)[nH]1
cytotoxicity at 70.5 h: 21.3%

CN1[C@@H](c2ccccc2)[C@@H](C(=O)NCc2ccncc2)C[C@@]1(C)C(=O)O
cytotoxicity at 70.5 h: -22.3%

CN(Cc1cccc(CCN)c1)Cc1cccc2ncccc12
cytotoxicity at 70.5 h: -16.2%

Cc1c(C(=O)N2CCOCC2)nnn1-c1ccc2ncccc2c1
cytotoxicity at 70.5 h: -6.04%

CCOc1ncccc1NC(=O)NC1CCCN(S(C)(=O)=O)C1 (centres undefined)
cytotoxicity at 70.5 h: -0.949%

CC(C)CS(=O)(=O)CCNc1ncccn1
cytotoxicity at 70.5 h: -4.65%

CC(C)c1cc(NC(=O)Cn2ccc(=O)c3ccccc32)[nH]n1
cytotoxicity at 70.5 h: 5.53%

CC(C)(C)OC(=O)N[C@@H]1C[C@@H](O)CN(C(=O)c2ccc(F)cc2)C[C@H]1O
cytotoxicity at 70.5 h: -2.5%

CC(C)c1cc(C(=O)N2CCCN(Cc3ccccc3)CC2)n[nH]1
cytotoxicity at 70.5 h: -5.87%

CC1CCN(S(=O)(=O)N2Cc3ccccc3C[C@H]2C(N)=O)CC1
cytotoxicity at 70.5 h: -4.51%

O=c1ccc(S(=O)(=O)N2CCCC2)cn1CC1CCCCO1 (centres undefined)
cytotoxicity at 70.5 h: -11.1%

O=C(Cn1ccnc1)N(CCO)CCSc1ccc(Cl)cc1
cytotoxicity at 70.5 h: -8.84%

COCc1cc(NCc2cccnc2Oc2ccc(C)nc2)ncn1
cytotoxicity at 70.5 h: -12.4%

Cc1cc(CNC(=O)NC(C)c2ccccc2)no1 (centres undefined)
cytotoxicity at 70.5 h: 0.144%

CC(C)NC(=O)N1CCN(C(=O)C(C)C)CC2(CC(=O)N(C)C2)C1 (centres undefined)
cytotoxicity at 70.5 h: 7.84%

Cc1cc(NCCc2nc(C)cs2)nc(-c2cccnc2)n1
cytotoxicity at 70.5 h: -9.72%

CC(=O)N1CCc2c(nc(N(C)C)nc2NCCCn2ccnc2)C1
cytotoxicity at 70.5 h: -8.48%

Cn1cncc1CNC1CC2(CCN(CC3CC3)CC2)c2ccccc21 (centres undefined)
cytotoxicity at 70.5 h: -2.23%

CSCC(C)(O)CNC(=O)Nc1ccc(C)cc1Br (centres undefined)
cytotoxicity at 70.5 h: -3.05%

Cc1ccc(N[C@@H]2CN(Cc3cc(C)on3)C[C@@H]3CCCO[C@@H]32)nn1
cytotoxicity at 70.5 h: 2.24%

Cc1ccc(CNC(CCO)C2CCCCC2)nc1 (centres undefined)
cytotoxicity at 70.5 h: -1.61%

CC(C)c1nc2n(n1)CC(NCc1nc(-c3cccnc3)no1)CC2 (centres undefined)
cytotoxicity at 70.5 h: 21.9%

CSC(C)(C)CNC(=O)Nc1cccc(-c2nccn2C)c1
cytotoxicity at 70.5 h: -3.46%

COCCN1CCN(Cc2cccc(OCC(N)=O)c2)CC1C (centres undefined)
cytotoxicity at 70.5 h: 10.7%

CCSCC(C)NCc1ccccc1-n1ccnc1 (centres undefined)
cytotoxicity at 70.5 h: -2.53%

Cc1nc(C2CCCN2Cc2nnc(C3CC3)o2)no1 (centres undefined)
cytotoxicity at 70.5 h: 0.406%

CSc1nccc(N2CCC3(CCCN(CCc4ccccc4)C3)C2)n1 (centres undefined)
cytotoxicity at 70.5 h: 6.79%

CCc1cnc(C)nc1N1CCN(C(N)=O)CC1
cytotoxicity at 70.5 h: -12.6%

Cc1nnc(NC(=O)NCc2ccc(F)cc2)s1
cytotoxicity at 70.5 h: -1.95%

Cc1ccc(C(O)CN(C)Cc2cnn(C)c2)cc1C (centres undefined)
cytotoxicity at 70.5 h: -1.99%

CN(CCn1cnnc1)S(=O)(=O)c1ccc(C(F)(F)F)nc1
cytotoxicity at 70.5 h: -15.6%

Cc1occc1C(=O)N1CCCN(Cc2ncc(Cl)n2C)CC1
cytotoxicity at 70.5 h: -7.84%

CCc1cc(=O)[nH]c(NC2CCN(S(=O)(=O)c3ccccc3)CC2)n1
cytotoxicity at 70.5 h: -7.53%

O=C(O)c1ccccc1-c1ccc(CN2CCC(CO)C2)cc1 (centres undefined)
cytotoxicity at 70.5 h: -6.69%

CSc1ccc(NC(=O)Cn2cc(N)cn2)cc1
cytotoxicity at 70.5 h: -6.5%

Cc1nc(NC(=O)C(C)N2CCN(c3ccccc3F)CC2)sc1C (centres undefined)
cytotoxicity at 70.5 h: -2.47%

CCOCCNS(=O)(=O)c1ccc2c3c1CCCN3C(=O)CO2
cytotoxicity at 70.5 h: 33.6%

CC(O)CN(CC(=O)NC(=O)NC1CC1)c1ccccc1 (centres undefined)
cytotoxicity at 70.5 h: -11%

CN(C)c1ccc(C(CNS(=O)(=O)c2cccs2)N2CCCC2)cc1 (centres undefined)
cytotoxicity at 70.5 h: -2.5%

Cc1n[nH]c(C)c1C1COCCN1C(=O)c1n[nH]c2ccccc12 (centres undefined)
cytotoxicity at 70.5 h: 12.3%

CC(C)(C)c1noc(OCC(=O)NC2CCCC2)n1
cytotoxicity at 70.5 h: 0.264%

O=C(CCC(=O)c1ccccc1)NC1(C(=O)NCC2CC2)CCCC1
cytotoxicity at 70.5 h: -9.03%

Cc1cccc(CNC2CCCc3c2cnn3C)c1 (centres undefined)
cytotoxicity at 70.5 h: -6.91%

O=C1O[C@@H]2CN(Cc3cc4ccccc4o3)C[C@@H]2N1Cc1ccccn1
cytotoxicity at 70.5 h: -4.9%

COC[C@@H]1CC[C@H]2[C@H](CCN2S(=O)(=O)c2cccc(F)c2)O1
cytotoxicity at 70.5 h: -5.66%

CN(CCOc1ccccc1Cl)S(=O)(=O)N1CCOCC1
cytotoxicity at 70.5 h: -7.93%

CC(=O)CSc1nnc2n1N=CN(c1cccc(Cl)c1)C2
cytotoxicity at 70.5 h: -8.9%

Cn1c(N2CC[C@H](O)C2)nc2cc(C(N)=O)ccc21
cytotoxicity at 70.5 h: 5.31%

CCN1CCn2c(C)cnc2C12CCN(C(=O)NCC(C)C)CC2
cytotoxicity at 70.5 h: -11.3%

O=C(Nc1ccccc1F)NC1(CO)CCOCC1
cytotoxicity at 70.5 h: -12.1%

O=C([C@@H]1CC[C@@H]2[C@@H](CCN2c2ncccn2)O1)N1CCCO1
cytotoxicity at 70.5 h: 11.8%

CC(=O)C(C)CC(=O)N(Cc1cccc(C)c1)C(C)C (centres undefined)
cytotoxicity at 70.5 h: -1.29%

Cc1cccc(C2CCCN(C(=O)CN3C(=O)CCNC3=O)C2)c1 (centres undefined)
cytotoxicity at 70.5 h: -13.9%

Cc1ccc(CN2CCCn3c(nc(Cn4ccnc4)cc3=O)C2)o1
cytotoxicity at 70.5 h: -6.14%

CC(C)n1nc2c(cc1=O)CN(CCOc1ccc(C#N)cc1)CC2
cytotoxicity at 70.5 h: -12.5%

CC1(C)COCCN1C(=O)CCc1nc(-c2ccccn2)no1
cytotoxicity at 70.5 h: -18.1%

CNc1cncc(C2CCCN2Cc2ccccn2)n1 (centres undefined)
cytotoxicity at 70.5 h: -6.51%

Cc1nc2cc(O)nn2c(C)c1CCC(=O)N(C)CCC(C)C
cytotoxicity at 70.5 h: -7.92%

COc1c(Br)c(CC2CC(CO)=NO2)c(OC)c2c1OCO2 (centres undefined)
cytotoxicity at 70.5 h: -9.88%

C1CC(CN2CCOCC3(CCN(C4CCOCC4)C3)C2)CCO1 (centres undefined)
cytotoxicity at 70.5 h: -6.07%

CCN1C(=O)CC(c2cnn(C)c2)C12CCN(C(=O)c1ccoc1)CC2 (centres undefined)
cytotoxicity at 70.5 h: -0.434%

CCc1[nH]nc(NC(=O)c2cc[nH]n2)c1C
cytotoxicity at 70.5 h: 6.09%

CCN(CC)CC[C@H]1CN(C(=O)C(C)(C)C)CC[C@H]1CC(=O)O
cytotoxicity at 70.5 h: -8.97%

CNS(=O)(=O)CC(=O)N1CCC(c2cc3ccccc3[nH]2)CC1
cytotoxicity at 70.5 h: 1.33%

OC1(CNCCCN2CCc3ccccc32)CCNC1 (centres undefined)
cytotoxicity at 70.5 h: 22.2%

N#Cc1cc(F)c(NCc2ccc(F)cc2)c(F)c1
cytotoxicity at 70.5 h: 15.5%

CC1CCN(S(=O)(=O)N2CCn3cccc3C2C)CC1 (centres undefined)
cytotoxicity at 70.5 h: -4.61%

O=C(Cc1ccc2c(c1)CCC2)N1CCCC1Cn1cccn1 (centres undefined)
cytotoxicity at 70.5 h: 26.4%

O=C(c1ccc(OCC2CC2)nc1)N1CCCC(n2cccn2)C1 (centres undefined)
cytotoxicity at 70.5 h: -7.07%

Cc1cnn(CC2CCCCN2C(=O)Cc2c(C)noc2Cl)c1 (centres undefined)
cytotoxicity at 70.5 h: 24.1%

CNc1oc(COc2ccc3c(c2)OCO3)nc1C#N
cytotoxicity at 70.5 h: -19.3%

Cc1cccc(N2CCCC2c2nc(C)ncc2CN(C)C)n1 (centres undefined)
cytotoxicity at 70.5 h: -4.92%

CCN(CC)S(=O)(=O)CCNC(=O)c1cc2cccc(F)c2o1
cytotoxicity at 70.5 h: -1.2%

Cc1cc(=O)c(C(=O)N2CCCCC2c2ccc(F)cc2)c[nH]1 (centres undefined)
cytotoxicity at 70.5 h: -4.63%

NC(=O)C(NCc1nn(-c2ccccc2)c2c1CCC2)c1ccccc1 (centres undefined)
cytotoxicity at 70.5 h: -10.6%

Cc1noc(C2CCN(C(C)c3nc(C4CC4)no3)CC2)n1 (centres undefined)
cytotoxicity at 70.5 h: -16.9%

CC1CN(Cc2cccc(CN)c2)CCO1 (centres undefined)
cytotoxicity at 70.5 h: -9.2%

CCOC(C)c1noc(CN2CCN(Cc3cccc(F)c3)CC2)n1 (centres undefined)
cytotoxicity at 70.5 h: -7.41%

c1ccc(-c2cc(CNCCN3CCCC3)c3nnnn3c2)cc1
cytotoxicity at 70.5 h: -3.47%

Cc1ccc(NS(=O)(=O)c2cc3c(c(C(=O)O)c2)OCCO3)cc1F
cytotoxicity at 70.5 h: -3.64%

Cc1ccccc1CCCN1C(=O)CC2(CCSC2)C1=O (centres undefined)
cytotoxicity at 70.5 h: 2.27%

CCOc1c(Br)cc(CNC(C)c2nnc3n2CCC3)cc1OC (centres undefined)
cytotoxicity at 70.5 h: -4.89%
